ChEMBL document CHEMBL6083253, “Chemical synthesis and enzymatic late-stage diversification of novel pantothenate analogues with antiplasmodial activity” (Eur J Med Chem, 2024)
pIC50, pKd: −log10 of the molar value. Calls of active or inactive are those of the source. The calls are words filed in the database; no cut-off is given here.

Experiments:
[1] = system: Plasmodium falciparum; assay: Antiplasmodial activity against intraerythrocytic stage of Plasmodium falciparum 3D7 assessed as inhibition of parasite proliferation in presence of pantetheinase; assay type: functional, organism-based
[2] = system: Priestia megaterium; assay: Substrate activity at full length C-terminal his-tagged Bacillus megaterium […] BM3 A82F/F87V double mutant preincubated for 5 min in presence of NADP+ followed by compound addition by LC-MS analysis
[3] = system: Priestia megaterium; assay: Substrate activity at full length C-terminal his-tagged wild type Bacillus megaterium […] BM3 preincubated for 5 min in presence of NADP+ followed by compound addition by LC-MS analysis
[4] = system: Priestia megaterium; assay: Substrate activity at full length C-terminal his-tagged Bacillus megaterium […] BM3 A82F/F87V double mutant assessed as conversion rate by UV-HPLC analysis
[5] = system: Plasmodium falciparum; assay: Antiplasmodial activity against Plasmodium falciparum infected in human Erythrocyte measured after 96 hrs in presence of chloroquine and 1 uM of pantothenate by SYBR green fluorescence dye based microplate reader analysis; assay type: functional, organism-based
[6] = Binding affinity to full length C-terminal his-tagged Bacillus megaterium […] BM3 A82F/F87V double mutant assessed as dissociation constant by Michaelis-Menten equation based analysis; design: species or system Priestia megaterium
[7] = system: Plasmodium falciparum; assay: Antiplasmodial activity against intraerythrocytic stage of Plasmodium falciparum 3D7 assessed as inhibition of parasite proliferation; assay type: functional, organism-based
[8] = Cytotoxicity against HFF cells assessed as inhibition of cell proliferation at 200 uM incubated for 96 hrs in presence of 16.8 uM of pantothenate by IncuCyte live-cell analysis; assay type: toxicity, cell-based; details: human
[9] = Binding affinity to full length C-terminal his-tagged Bacillus megaterium […] BM3 A82F/F87V double mutant assessed as dissociation constant by Morrison equation based analysis; design: species or system Priestia megaterium
[10] = system: Plasmodium falciparum; assay: Antiplasmodial activity against Plasmodium falciparum infected in human Erythrocyte measured after 96 hrs in presence of chloroquine and 100 uM of pantothenate by SYBR green fluorescence dye based microplate reader analysis; assay type: functional, organism-based
[11] = system: Priestia megaterium; assay: Substrate activity at wild type full length C-terminal his-tagged Bacillus megaterium […] BM3 assessed as conversion rate by UV-HPLC analysis
[12] = Cytotoxicity against HFF cells assessed as inhibition of cell proliferation at 10 uM incubated for 96 hrs by IncuCyte live-cell analysis; assay type: toxicity, cell-based; details: human

Activity [2]	Activity [3]	pIC50 [5]	Compound	other results
			CCCCCCn1cc(CNC(=O)[C@H](O)C(C)(C)CO)nn1	pIC50 [1]: 7.26
Active	Active		CCCCCc1noc(CNC(=O)[C@H](O)C(C)(C)CO)n1	Activity [4]: 32.9%
		4.26	CC(C)(O)CCCc1cc(CNC(=O)[C@H](O)C(C)(C)CO)no1	
		< 3.70	CC(C)(CO)[C@@H](O)C(=O)NCc1cn(CC(O)Cc2ccccc2)nn1 (some centres undefined)	
Active	Active	4.80	CC(C)(CO)[C@@H](O)C(=O)NCc1cn(CCCc2ccccc2)nn1	pKd [6]: 5.00; pIC50 [7]: 4.60; Activity [4]: 32.3%
inactive	inactive	5.00	CCC(C)c1cc(CNC(=O)[C@H](O)C(C)(C)CO)no1 (some centres undefined)	
inactive	inactive		CCCCCNC(=O)CCNC(=O)[C@H](O)C(C)(C)CO	
		4.54	CC(C)(O)CCc1cc(CNC(=O)[C@H](O)C(C)(C)CO)no1	
			CCCCc1cc(CNC(=O)[C@H](O)C(C)(C)CO)no1	pIC50 [1]: 7.14
Active	Active	6.89	CCSCc1cc(CNC(=O)[C@H](O)C(C)(C)CO)no1	Activity [4]: Active; inhibition at 96 h, 200 µM [8]: 100%; pKd [9]: 6.05; pIC50 [10]: < 5.80
Active	Active	6.46	CC(C)CCCc1cc(CNC(=O)[C@H](O)C(C)(C)CO)no1	Activity [4]: Active; inhibition at 96 h, 200 µM [8]: 102%; pKd [9]: 5.43; pIC50 [10]: < 5.51
		3.82	CC[S+]([O-])Cc1cc(CNC(=O)[C@H](O)C(C)(C)CO)no1 (some centres undefined)	
inactive	Active	5.40	CC(C)(C)Cc1cc(CNC(=O)[C@H](O)C(C)(C)CO)no1	inhibition at 96 h, 200 µM [8]: 102%; pIC50 [10]: < 4.30
		5.41	CC(C)C(O)CCc1cc(CNC(=O)[C@H](O)C(C)(C)CO)no1 (some centres undefined)	inhibition at 96 h, 200 µM [8]: 101%; pIC50 [10]: < 4.30
Active	Active	6.33	CC(C)Cc1cc(CNC(=O)[C@H](O)C(C)(C)CO)no1	Activity [4]: 37.5%; inhibition at 96 h, 200 µM [8]: 100%; pKd [9]: 5.52; pIC50 [10]: < 5.20
Active	Active	6.66	CC(C)CCc1cc(CNC(=O)[C@H](O)C(C)(C)CO)no1	Activity [11]: 85.6%; inhibition at 96 h, 200 µM [8]: 100%; pIC50 [10]: < 5.51
			CCCCCn1cc(CNC(=O)[C@H](O)C(C)(C)CO)nn1	pIC50 [1]: 7.25
			C[C@@H]1C[C@@H]([C@H](O)CC2CC(=O)NC(=O)C2)C(=O)[C@@H](C)C1 [CYCLOHEXIMIDE]	inhibition at 96 h, 10 µM [12]: 100%
		5.14	CC(C)C(O)Cc1cc(CNC(=O)[C@H](O)C(C)(C)CO)no1 (some centres undefined)	
			CCCCCc1cc(CNC(=O)[C@H](O)C(C)(C)CO)no1	pIC50 [1]: 6.80
		4.10	CC(C)C(O)c1cc(CNC(=O)[C@H](O)C(C)(C)CO)no1 (some centres undefined)	
inactive	inactive		CCCCCc1nnc(CNC(=O)[C@H](O)C(C)(C)CO)[nH]1	
inactive	inactive		CCCCCc1nnc(CNC(=O)[C@H](O)C(C)(C)CO)o1	
